From US20050277586A1, “Peptide chemically modified with polyethylene glycol” (priority 2002, published 2005)
No end group written: not given here.

Columns and labels:
[1] = system: Vero cell, T24 cell, A549 cell; assay: Nucleic acid-introducing ability, luciferase-expressing plasmid (procedure of Example 9); assay type: cell-based
Text: A cell line established from monkey kidney (Vero cell) and a human bladder cancer cell (T24 cell) purchased from American Type Culture Collection (ATCC) and human lung cancer cell (A549 cell) purchased from Dainippon Pharmaceutical were inoculated on a 24 well culture plate (manufactured by NALGEN NUNC) at 1×10^5 cells/well. Vero cell and A549 cell were cultivated in DMEM (manufactured by Life Technologies Oriental) supplemented with 10% fetal bovine serum (hereinafter referred to as FBS, manufactured by NICHIREI), and T24 cell was cultivated in McCoy's 5a (manufactured by Life Technologies Oriental) supplemented with 10% FBS in 5% CO2 atmosphere at 37° C. for 24 hours. After removing the medium, opti-MEM (manufactured by Life Technologies Oriental) prepared to have the concentration of the luciferase-expressing plasmid prepared in Example 7 of 1 μg/mL and the concentration of the peptide prepared in Example 1 of 1.25, 2.5, or 5 μM was added, and the cells were cultivated for 5 hours. Next, in the case of Vero cell and A549 cell, the culture medium was replaced with DMEM supplemented with 10% FBS, and in the case of T24 cell, the medium was replaced with McCoy's 5a supplemented with 10% FBS, and cultivation was continued in 5% CO2 atmosphere and at 37° C. for another 24 hours. The luciferase activity expressed in the cell was then measured by the method instructed in luciferase assay system (manufactured by Promega). To be more specific, the cells were washed with phosphate-buffered saline (hereinafter referred to as PBS, manufactured by SIGMA), and the cells were lyzed with Passive Lysis Buffer attached to the kit.
20 μL of this cell lysate and 100 μL of the Luciferase Assay Reagent II attached to the kit was added to a fluorescence-measuring plate (Microlite™ 1 plate, manufactured by Dynatech), and after mixing, fluorescence was measured for 1 second by using a multilabel counter (ARVO™ SY1420 MULTILABEL COUNTER, manufactured by Wallac Beltold.
Concentration of the protein in the cell lysate was measured by mixing 8 μL of the cell lysate and 200 μL of the protein assay solution (manufactured by Biorad) with 792 μL of ultrapure water in a disposable cuvette (UV fluorescent cuvette A204X, manufactured by Funakoshi), allowing the mixture to stand for 5 minutes at room temperature, and measuring the absorption at 595 nm with a spectrophotometer (DU640, manufactured by Beckman). Bovine serum albumin (BSA) was used for the standard protein. By using the thus obtained results, count per 1 second per 1 mg of protein of the cell lysate was calculated to thereby use the count as the luciferase activity, and the highest count in the three conditions of different peptide concentration was designated the gene-introducing ability of the peptide.

[2] = Affinity for phosphatidyl serine by surface plasmon resonance (Biacore 2000); assay type: binding; details: in the presence of 0.1 mg/mL BSA
Method: The specific affinity of the peptide for phosphatidyl serine was evaluated by means of surface plasmon resonance (SPR) using Biacore 2000 (manufactured by Biacore). To be more specific, phosphatidyl choline was immobilized on flow cell 1, and 50% of phosphatidyl serine and 50% of phosphatidyl choline were immobilized on flow cell 2 of HPA chip (manufactured by Biacore), and ability of the peptide to bind to the phospholipid was evaluated in the presence of 0.1 mg/mL BSA to thereby evaluate the affinity.

[3] = Measurement of CD spectrum with and without SDS; assay type: physicochemical; details: 10 mM phosphate buffer pH 7, 50 mM NaCl, 35° C.; for α-helix structure in CD spectroscopy in the presence of SDS: 5 mM SDS
Method: The peptide dissolved in 10 mM phosphate buffer (pH=7) containing 50 mM NaCl was evaluated for its CD spectrum in the presence and in the absence of 5 mM SDS by using a circular dichroism spectrophotometer (J-500A, manufactured by JASCO). The cell length was 1 mm. The measurement was conducted at 35° C. for 6 times in total.

[4] = system: Lewis lung carcinoma cell; assay: In vivo HSV-tk gene introduction plus GCV, survival of mice with Lewis lung carcinoma in abdominal cavity; design: species or system mouse; details: GCV only, 30 mg/kg/day
Method: To be more specific, 1×10^5 Lewis lung carcinoma cells were transplanted in the abdominal cavity of a C57BL/6 mouse (purchased from Charles River JAPAN), and a mixture of 10 μg of the HSV-tk-expressing plasmid prepared in Example 7 and 40 nmol of the peptide of SEQ ID NO: 16 prepared in Example 1 was administered in the abdominal cavity after the cell transplantation. The mouse was also administered with GCV at a dose of 30 mg/kg/day from 1st to 8th day after the transplantation.

[5] = Toxicity of the peptide, tail vein administration; assay type: in vivo; details: female BALB/c mouse, 5 mg/kg
Method: The peptide used in the present invention was administered to a mouse from its tail vein to thereby evaluate its toxicity. The mouse used was a female BALB/c mouse of 5 week old, and the peptide was used at a dose of 5 mg/kg.

[6] = system: Vero cell; assay: Storage stability of the complex with nucleic acid (gene-introducing activity after 4° C., 1 week); assay type: cell-based, monkey; details: complex with luciferase plasmid stored at 4° C. for 1 week
Method: Luciferase-expressing plasmid was introduced in Vero cell in accordance with the procedure described in Example 9 by using the opti-MEM prepared to have a concentration of the luciferase-expressing plasmid prepared in Example 7 of 2 μg/mL and a concentration of the peptide of SEQ ID NO: 4 prepared in Example 1 of 5 μM to thereby measure the luciferase activity. The opti-MEM containing plasmid and peptide used were the one which had been prepared immediately before the gene introduction, and the one which had been prepared 1 week (7 days) in advance and stored at 4° C.
For the purpose of reference, gene-introducing activity of Lipofectin and LipofectAMINE 2000 (manufactured by Life Technologies Oriental), which are commercially available plasmid-introducing agents, were also evaluated by mixing these reagent with luciferase-expressing plasmid in accordance with the attached protocol, and evaluating their gene-introducing activity after storing at 4° C. for 1 week.

With “SEQ ID NO: 25: same amino acid composition as SEQ ID NO: 1 but with an utterly random amino acid sequence (TIRYRPSHQIRLRAVLHLWIRYRPSHQIRLRAVLHWS) [reference compound]” as the compound, how does the “Ability of introducing the nucleic acid into a cell” value ([1]; procedure of Example 9) read?
Its value is “neither the nucleic acid-introducing ability”.

What about the “Binding to flow cell 2 (50% phosphatidyl serine, 50% phosphatidyl choline) and flow cell 1 (phosphatidyl choline)” value [2] of the same compound?
Its value is “showed no binding”.

And the “α-helix structure in CD spectroscopy in the presence of SDS” value [3]?
The value was “no α-helix structure is found even in the presence of SDS”.

With `Nc1nc(O)c2ncn(COC(CO)CO)c2n1` [GCV, ganciclovir] as the compound, how does the Average survival period [4] read?
Its Average survival period is 14 days.

With “LARLLARLLARLLRALLRALLRAL [SEQ ID NO: 27]” as the compound, how does the “Toxicity after tail vein administration” value [5] read?
The value was “died immediately after the administration”.

What does the source list for “SEQ ID NO: 4: SEQ ID NO: 1 with one or two locations in the 18 amino acid sequence substituted (TRYLRIHPRSWLHQIALRLRYLRIHPRSWLHQIALRS)”?
Nucleic acid-introducing ability ([1]; luciferase plasmid 1 μg/mL, highest count of peptide 1.25, 2.5 or 5 μM, cell line not stated): 4+ (10,000,000 to less than 100,000,000); Gene-introducing activity after storage relative to freshly prepared complex [6]: substantially equivalent; α-helix structure in CD spectroscopy in the presence of SDS [3]: are in α-helix structure in the presence of SDS; α-helix structure in CD spectroscopy in the absence of SDS ([3]; no SDS): do not take α-helix structure in an aqueous solution solely containing an inorganic salt
